From ChEMBL document CHEMBL1201862, “PubChem BioAssay data set” (2004) come the findings set out here.

One experiment deals with Cytochrome P450 2C9 (Homo sapiens, UniProt P11712).
A short description of experiment [1]: inhibitors of intracellular T. cruzi replication, confirmation, NIH3T3 host cells, beta-gal luminescence (AID 2044).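 Also: intracellular parasites grown in NIH/3T3 mouse fibroblasts as host cells; luminescent beta-galactosidase reporter signal from transgenic T. cruzi replicating inside host cells; inhibitors lower the luminescence signal.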 The experiment is classed as functional, cell-based.
Experiment [2] can be described thus: cytotoxicity toward NIH3T3 fibroblasts, dose response, counter-screen, cell-based, ATP luminescence, mouse fibroblasts (AID 2010).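 Also: cells exposed to compound for about 90 hours before reading.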 The experiment is classed as functional.
A short description of experiment [3]: Luminescence Cell-Based Dose Retest to Confirm Inhibitors of Cancer Stem Cells. [Related pubchem assays (depositor defined):AID2717, AID2721]. The experiment is classed as functional. The settings on record: Homo sapiens.
The subject of the next experiment is INS1. Put plainly: beta cell apoptosis inhibitors, cytokine rescue, dose response, luminescence, retest (AID 449756).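 Also: cell death triggered by IL-1 beta plus TNF-alpha plus IFN-gamma mixture; protective hits raise ATP signal compared with cytokine alone wells.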 The experiment is classed as functional, cell-based. The settings on record: Rattus norvegicus.
The nature of experiment [4]: Luminescence Cell-Based Dose Response HTS to Identify Inhibitors of 5'UTR Stem-Loop Driven Prion Protein mRNA Translation in H4 Neuroglioblastoma Cells. [Related pubchem assays: 1827 (Project Summary), 1813 (Primary HTS)]. The experiment is classed as functional.
Experiment [5] is described as follows: inhibitors of firefly luciferase expression or activity, dose response, H4 neuroglioma cells, luminescence (AID 1990). The experiment is classed as functional, cell-based.
A short description of experiment [6]: inhibitors of SNCA 5'UTR-driven reporter translation, confirmation, H4 neuroglioma cells, luminescence (AID 1988). The experiment is classed as functional, cell-based.
A further experiment concerns the target Cytochrome P450 3A4 (Homo sapiens, UniProt P08684).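 Also: CYP3A4 tested as one member of a cytochrome P450 panel screen.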
For the next experiment, the system named is Streptococcus. Nature of the experiment: Group A Streptococcus viability loss, dose response, counter-screen for streptokinase expression inhibitor project, luminescence, BacTiterGlo (AID 1915).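 Also: potency for reduction of bacterial viability or growth.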 Format: functional, organism-based. On the technique in general: A counterscreen serves to expose hits that act by an unwanted route or on another target.
Experiment [7] concerns Streptococcus sp. 'group A'. Put plainly: growth inhibition of control SK(-) GAS strain, dose response, counter-screen for streptokinase expression inhibitor project, luminescence, kanamycin, BacTiterGlo, confirmation (AID 1900). Format: functional, organism-based.

The source made the active and inactive calls. Rule as the data show it, for most assays here: actives have a measured EC50 and inactives only a lower limit.

Sequence of Cytochrome P450 3A4 (P08684 whole entry): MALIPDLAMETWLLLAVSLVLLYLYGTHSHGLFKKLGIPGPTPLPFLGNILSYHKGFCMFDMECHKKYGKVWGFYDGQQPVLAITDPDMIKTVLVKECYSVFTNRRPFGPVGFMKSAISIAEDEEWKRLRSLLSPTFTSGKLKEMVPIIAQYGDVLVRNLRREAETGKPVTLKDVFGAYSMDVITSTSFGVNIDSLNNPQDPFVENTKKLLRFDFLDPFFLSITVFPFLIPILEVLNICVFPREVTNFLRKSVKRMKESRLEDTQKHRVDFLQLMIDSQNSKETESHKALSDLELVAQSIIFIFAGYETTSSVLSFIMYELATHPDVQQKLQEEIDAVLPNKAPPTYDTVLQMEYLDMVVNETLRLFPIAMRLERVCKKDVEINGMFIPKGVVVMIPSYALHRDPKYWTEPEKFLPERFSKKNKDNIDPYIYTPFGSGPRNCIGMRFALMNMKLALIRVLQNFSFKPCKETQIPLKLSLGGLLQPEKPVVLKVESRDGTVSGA
Sequence of Cytochrome P450 2C9 (P11712 whole entry): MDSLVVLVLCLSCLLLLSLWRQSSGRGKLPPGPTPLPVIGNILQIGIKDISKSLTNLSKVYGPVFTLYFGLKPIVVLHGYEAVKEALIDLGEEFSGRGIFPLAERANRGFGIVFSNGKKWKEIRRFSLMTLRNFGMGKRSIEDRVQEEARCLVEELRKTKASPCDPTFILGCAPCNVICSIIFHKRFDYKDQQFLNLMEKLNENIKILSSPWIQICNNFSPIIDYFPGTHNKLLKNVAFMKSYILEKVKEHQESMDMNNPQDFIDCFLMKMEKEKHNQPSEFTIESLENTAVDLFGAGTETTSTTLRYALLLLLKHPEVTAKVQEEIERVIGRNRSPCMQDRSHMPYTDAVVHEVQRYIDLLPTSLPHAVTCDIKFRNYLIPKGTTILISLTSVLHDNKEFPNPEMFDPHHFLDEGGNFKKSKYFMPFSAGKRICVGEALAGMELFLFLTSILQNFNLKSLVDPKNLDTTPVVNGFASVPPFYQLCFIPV

`C=C(C)COc1ccc2c(c1)CCC1C2CC[C@]2(C)C(=O)/C(=N/O)CC12` (some centres undefined): the AC50 (as a rule, the concentration giving half of the maximal activity seen) at Cytochrome P450 2C9 is 3.16 µM (inconclusive).
Consider `CN1CCN(NC(=O)c2ccc(S(=O)(=O)N3CCCCCC3)cc2)CC1`, for which the figures for the EC50 in [1] and in experiment [2] were 0.247 µM (active) and > 60 µM (not active), respectively.
On the same counts, the results for `CN(Cc1ccccc1)CC(O)COc1ccc(CNCCc2ccncc2)cc1` (centres undefined) are 0.9 µM (active) and > 60 µM (not active).
Taken in the same sequence, the figures for `Clc1ccccc1N1CCN(Cc2c[nH]c3ccccc23)CC1` were 1.43 µM (active) and > 60 µM (not active).
Taken in the same sequence, the figures for `CC(C)C(NC(=O)C12CC3CC(CC(C3)C1)C2)C(=O)N/N=C/C1=C(N2CCOCC2)C(=C\c2cccc([N+](=O)[O-])c2)/CC1` (centres undefined) were 2.16 µM (active) and > 60 µM (not active).
Turning to `CCCn1c2c(c(O)c(C(=O)NCc3ccccc3)c1=O)CCCC2`, on Cytochrome P450 2C9, the AC50 was 20 µM (inconclusive).
Same read-out and setting: under `Nc1nnc(SCCOc2cccc(Br)c2)s1` stands 15.8 µM (inconclusive).
On to `Cc1cccc(Nc2c([N+](=O)[O-])cc(C(=O)N3CC(=O)Nc4ccccc43)cc2[N+](=O)[O-])c1`, for which the EC50 – broadly, the concentration at which the effect is half-maximal – in [1] was 0.518 µM (active); in [2], > 60 µM (not active).
As to `Cc1ccc(C)c(NC(=O)c2ccccc2NS(=O)(=O)c2cc([N+](=O)[O-])ccc2C)c1`, the AC50 in experiment [3] was 1.19 µM (active); with INS1, 3.76 µM (active).
In the case of `COc1cccc(-c2cc(NCCc3c[nH]c4ccc(OC)cc34)ncn2)c1`, the AC50 at Cytochrome P450 2C9 was 1.58 µM (inconclusive).
For `O=C(Nc1cccnc1Cl)c1cc([N+](=O)[O-])ccc1Cl`, the EC50 in [1] and in experiment [2] was > 60 µM (not active) in each case.
For `CCOc1ccc(-c2cc(CCCC(=O)N3CCN(c4ccc(OC)cc4)CC3)no2)cc1`, the results for the EC50 in experiment [4], in experiment [5] and in experiment [6] were > 120 µM (not active), > 120 µM (not active) and 28.1 µM (active), respectively.
For `Cc1ccc(NCc2ccc(C)s2)cc1`, the figures for the EC50 in experiment [1] and in experiment [2] were 2.13 µM (active) and > 60 µM (not active), respectively.
With `CCOC(=O)Cc1csc(NC(=O)c2c(O)c3ccccc3n(CC(C)C)c2=O)n1`, the EC50 in [4] is > 120 µM (not active); in [5], > 120 µM (not active); in experiment [6] it was 11.1 µM (active).
In the case of `COc1cccc2s/c(=N/C(=O)CS(=O)(=O)c3ccc(F)cc3)n(C)c12`, the EC50 in experiment [1] was 1.2 µM (active); in experiment [2], > 60 µM (not active).
In the case of `CC(=O)c1cccc(/N=c2\scc(-c3ccc(S(=O)(=O)N4CCOCC4)cc3)n2CCO)c1`, in the experiment on INS1, the AC50 is 2.5 µM (active).
With `C/C(=N/Cc1cccc(Cl)c1)c1nc(-c2ccco2)oc1O`, the concentration at half-maximal activity (AC50) in experiment [3] was 1.08 µM (active).
In the case of `CS(=O)(=O)n1nc(-c2cccnc2)nc1NCc1ccccc1`, the EC50 in [4], in experiment [5] and in experiment [6] was > 120 µM (not active) throughout.
For `Cc1ccc(-n2nc(C)c3c(C)c(CCC(=O)NCC4CCCO4)c(=O)n(C)c32)cc1` (centres undefined), the 50% effective concentration (EC50) in experiment [1] is 5.19 µM (active); in experiment [2], > 60 µM (not active).
For the compound `COc1cc(CNCCN2CCOCC2)ccc1OCc1ccccc1Cl`, the AC50 on Cytochrome P450 2C9 was 7.94 µM (inconclusive).
Regarding `COc1ccc(OC)c(NC(=O)CSc2nnc(-c3cccnc3)s2)c1`, the AC50 with INS1 is 3.66 µM (active).
As for `CCn1c(C)c(C)c2cc(C(=O)N3CCN(c4cccc(C)c4C)CC3)ccc21`, the AC50 in [3] was 4.18 µM (active).
As to `COc1ccc2nc(NC(=O)c3cccc(-c4cc5ccccc5oc4=O)c3)sc2c1`, the AC50 in experiment [3] was 6.73 µM (active).
For the compound `CC/C(NNc1ccccc1)=C1/C(=O)NC(=O)N(c2ccc(OC)cc2)C1=O`, the AC50 in experiment [3] was 0.769 µM (active).
Regarding `Cc1ccc(Cl)cc1N=C(S)N(Cc1cccnc1)Cc1ccccc1Cl`, the EC50 in [1] was 0.554 µM (active); in experiment [2], > 60 µM (not active).
For the compound `CN(C)Cc1ccccc1-c1ccc2ncnc(N(C)Cc3ccco3)c2c1`, on Cytochrome P450 3A4, the AC50 is 15.8 µM (inconclusive).
For the compound `CC/C(NNc1ccccc1)=C1/C(=O)NC(=O)N(c2ccccc2)C1=O`, the AC50 in experiment [3] is 0.828 µM (active).
`O=C(NCCS(=O)(=O)N1CCN(c2ccc(F)cc2)CC1)c1ccc(Br)o1`: the EC50 in [4], in experiment [5] and in experiment [6] was > 120 µM (not active) in each case.
Consider `Cn1c(-c2ccsc2)c(-c2cccs2)c2cc(Br)ccc21`, for which the AC50 in experiment [3] was 3.15 µM (active).
Turning to `CC(C)c1nc(N2CCOCC2)c(C#N)c2c1COC(C)(C)C2`, the EC50 was > 120 µM (not active) in [4], 33.6 µM (active) in experiment [5] and > 120 µM (not active) in experiment [6].
Consider `CCCCn1c(C2CCCCC2)nc2cc3nc(O)c(C(C)C)nc3cc21`, for which the AC50 in [3] is 1.23 µM (active).
As for `Cn1c(NCc2cccnc2)nc2c1c(=O)n(Cc1ccccc1F)c(=O)n2C`, the half-maximal effective concentration (EC50) in experiment [4] was > 120 µM (not active); in experiment [5], 18.5 µM (active); in [6] it was > 120 µM (not active).
As to `CCOCC(=O)Nc1cc(C(=O)Nc2cccc(C)c2C)ccc1Cl`, at Cytochrome P450 3A4, the AC50 is 25.1 µM (inconclusive).
On to `O=C(c1nn2c(C(F)(F)F)cc(-c3ccco3)nc2c1Br)N1CCCc2ccccc21`, for which the EC50 is 13.8 µM (active) in [4], 8.31 µM (active) in experiment [5] and 10.2 µM (active) in experiment [6].
With `CCC(C)(C)n1nnnc1C(c1cc2ccc(OC)cc2nc1O)N1CCc2ccccc2C1` (centres undefined), the EC50 in experiment [1] is 1.91 µM (active); in experiment [2] it was 4.98 µM (active).
Take `O=C(c1ccccc1)c1cc(F)c(N2CCOCC2)cc1Cl`: the AC50 at Cytochrome P450 3A4 is 17.8 µM (inconclusive).
As for `N#Cc1c(N2CCOCC2)nc(-c2ccco2)c2c1CCCC2`, the EC50 in [4] is 18.5 µM (active); in experiment [5], 21.5 µM (active); in experiment [6], > 120 µM (not active).
With `O=C(CCNC(=O)c1ccccc1Cl)Nc1nc(-c2ccc3ccccc3c2)cs1`, the values for the EC50 in experiment [1] and in [2] were 2.02 µM (active) and > 60 µM (not active), respectively.
Consider `COc1ccc([C@@H]2[C@@H]3C(=O)N(C(C)(C)C)C(=O)[C@@H]3[C@]3(C)C(=O)N(c4cccc(F)c4)C(=O)N23)cc1`, for which the EC50 in experiment [4], in experiment [5] and in experiment [6] was > 120 µM (not active) in each case.
In the case of `CCOc1ccc(-n2nc3ccc(NC(=O)c4ccc5c(c4)OCCO5)cc3n2)cc1`, the EC50 in [4] was 72.6 µM (active); in experiment [5], > 120 µM (not active); in experiment [6] it was 12.7 µM (active).
In the case of `O=C(CC12CC3CC(CC(C3)C1)C2)NC(=S)Nc1ccc(CN2CCOCC2)cc1`, the EC50 in [1] was 1.51 µM (active); in [2], 9.26 µM (active).
Regarding `O=C1C2CCCN2C(c2ccc(F)cc2)N1c1nccs1` (centres undefined), the AC50 at Cytochrome P450 3A4 was 22.4 µM (inconclusive); at Cytochrome P450 2C9 it was 35.5 µM (inconclusive).
As to `COCCCN=C(S)NN=C(S)Nc1cccc(Cl)c1`, the EC50 (with Streptococcus; in experiment [7]) was > 150 µM (not active) throughout.
